In the experiment the test system is RMG-1 viability, CellTiterGlo ATP luminescence, 96 h. The experiment can be described thus: RMG-1 ovarian cancer cell viability loss – cherry-pick, dose response (AID 687029).
Turning to `COc1cc(/C=N/O)ccc1OCc1ccc(C(=O)O)cc1`, the AC50 (in general, the concentration at which the activity in the assay is half-maximal) was 12800 nM.

On to `O=C1CN(C(=O)Cn2ncc(Cl)c(Cl)c2=O)c2ccccc2N1`, for which the AC50 was less than 260 nM.

As to `Cc1ccccc1CNC(=O)C1CCCN(c2nnc(C)c3c(C)n(-c4ccccc4)nc23)C1` (stereo unspecified), the AC50 is less than 260 nM. For the compound `O=C(O)c1cccc(COc2ccc3c(c2)CCC3)c1`, the AC50 is less than 260 nM. For the compound `C=C1C(=O)C2=CC1CCC(=O)C1(C)CCC(OC(C)=O)C(C)(C)C1CC2O` (stereo unspecified), the AC50 was less than 260 nM. Consider `COc1ccc(/C=N/NC(=O)c2[nH]c3ccc(Br)cc3c2-c2ccccc2)cc1`, for which the AC50 is less than 260 nM. Turning to `Cc1cc(CN(C)C(=O)c2cc(COc3ccc4ncccc4c3)on2)on1`, the AC50 was less than 260 nM. The value for `O=C(Nc1cccc(NC(=O)c2cccs2)c1)c1ccc([N+](=O)[O-])o1` was 11100 nM. The value for `O=C(Nc1cccc(-c2ccc(N3CCCCC3)nn2)c1)C(F)(F)F` was less than 260 nM. For `COc1ccc(Cn2cc3c(-c4ccc(F)cc4)nnc-3c3cc(OC)c(OC)cc32)cc1`, the AC50 was 21300 nM. `COc1ccc(N2C(=O)CC(Sc3nnc(-c4ccccc4)o3)C2=O)cc1` (stereo unspecified): the AC50 was less than 260 nM. Turning to `O=C(c1cc([N+](=O)[O-])ccc1N1CCOCC1)N1CCN(c2ccccc2)CC1`, the AC50 is less than 260 nM. As to `C[C@H]1CCCCO[C@H](CN(C)Cc2ccc(C(F)(F)F)cc2)[C@@H](C)CN([C@@H](C)CO)C(=O)c2cc(NS(=O)(=O)c3ccc(Cl)cc3)ccc2O1`, the AC50 is less than 260 nM.

Turning to `Cc1ccc(S(=O)(=O)CC(CN2CCCCC2)N2CCCCC2)cc1` (stereo unspecified), the AC50 is less than 260 nM. The value for `Cc1ccc(S(=O)(=O)Nc2ccc3c(c2)CC(=O)N([C@H](C)CO)C[C@H](C)[C@H](CN(C)S(=O)(=O)c2ccc(F)cc2)O3)cc1` was 4300 nM; that for `O=C(Nc1ccc(OCC(F)(F)C(F)F)c(C(F)(F)F)c1)c1ccccc1O` was less than 260 nM. For `C[C@H](O)[C@@H]1CN2CCc3c([nH]c4ccc(-c5ccc6c(c5)OCO6)cc34)[C@@H]2C[C@@H]1N(C)C(=O)NC1CCCCC1`, the AC50 is less than 260 nM. With `Cc1cc(C2=NNC(=NC3CC3)SC2)c(C)n1-c1ccccc1F`, the AC50 was less than 260 nM.

Take `C[C@@H]1CCCCO[C@@H](CN(C)Cc2ccc(C(F)(F)F)cc2)[C@@H](C)CN([C@@H](C)CO)C(=O)c2cc(NS(=O)(=O)c3ccc(F)cc3)ccc2O1`: the AC50 is 35500 nM. Consider `O=C(C(=O)N(Cc1ccccc1)Cc1ccccc1)c1c(-c2ccccc2)[nH]c2ccccc12`, for which the AC50 is less than 260 nM. Take `Cc1ccsc1/C=N/Nc1cccc(C(=O)O)c1`: the AC50 was 13200 nM. As for `c1cc2c(cc1C1=NNC(=NC3CC3)SC1)OCCO2`, the AC50 is less than 260 nM. Regarding `COc1ccc(C2=NNC(=Nc3cc(S(=O)(=O)N(C)C)ccc3C)SC2)c(OC)c1`, the AC50 is less than 260 nM. For `Nc1nc(=S)c2[nH]cnc2[nH]1`, the AC50 is less than 260 nM. As for `C[C@]12CC[C@H]3[C@@H](CC[C@]4(O)C[C@@H](O)CC[C@]34C=O)[C@@]1(O)CC[C@@H]2C1=CC(=O)OC1`, the half-maximal activity concentration (AC50) was less than 260 nM.

For the compound `Cn1c(SCC(=O)c2ccccc2)nnc1-c1ccccn1`, the concentration at half-maximal activity (AC50) was 1420 nM. On to `CCC(C)(O)C(=O)OC1C(=O)OC2CC3C(C)=CC(=O)C(O)C3(C)C3C4(O)OCC23C1C(C)C4O` (stereo unspecified), for which the half-maximal activity concentration (AC50) was 19700 nM. As to `Cn1ncc2c(O/N=C(\N)c3ccc(C(F)(F)F)cc3)ncnc21`, the AC50 is less than 260 nM.

With `O=C1c2cccc3cc([N+](=O)[O-])cc(c23)C(=O)N1CCN1CCCC1`, the half-maximal activity concentration (AC50) is less than 260 nM. In the case of `O=S(=O)(NCC1CCCO1)c1cnc(Cl)c(Br)c1` (stereo unspecified), the AC50 was less than 260 nM.

Turning to `CC(C)(C)[C@H](N)C(=O)N[C@H]1CCC2C3CC=C4C[C@@H](O)CC[C@]4(C)C3CC[C@@]21C` (stereo partly specified), the AC50 is less than 260 nM.

`CCN(CC(=O)Nc1c(F)cccc1F)C(=O)c1cc(S(=O)(=O)N(C)C)ccc1N1CCCC1`: the AC50 was less than 260 nM. Regarding `O=[N+]([O-])c1cccnc1S(=O)(=O)c1ccccc1`, the AC50 is less than 260 nM. Consider `Cc1cc(C(C)(C)C)cc(C)c1Cn1c2[n+](c3ccc(C(F)(F)F)cc31)CCCCC2`, for which the AC50 was less than 260 nM. `C#CCN(C[C@@H]1[C@@H](OC(=O)NCc2ccccc2F)[C@@H](OC(=O)NCc2ccccc2F)Cn2c(=O)ccc(=O)n21)S(=O)(=O)c1ccc(C)cc1`: the AC50 is less than 260 nM. For `Cc1ccc2c(c1)c1c3n2CCN(CC(N)=O)C3CCC1` (stereo unspecified), the AC50 is 12300 nM. As for `COc1cc(C2C3=C(COC3=O)Oc3cc4c(cc32)OCO4)cc(OC)c1O` (stereo unspecified), the AC50 was less than 260 nM. As for `C[C@H](CO)N1C[C@H](C)[C@@H](CN(C)S(=O)(=O)c2ccc(Cl)cc2)OCCCC[C@H](C)Oc2ccc(NS(=O)(=O)c3ccc(Cl)cc3)cc2C1=O`, the figure is less than 260 nM; as for `O=C(CN1C(=O)c2ccccc2S1(=O)=O)c1ccc2c(c1)OCCO2`, less than 260 nM; as for `CCN(CC)S(=O)(=O)c1cc(NC(=O)Cn2ncc(Cl)c(Cl)c2=O)ccc1C`, less than 260 nM. Turning to `C[C@H](CO)N1C[C@H](C)[C@H](CN(C)S(=O)(=O)c2ccc(Cl)cc2)OCCCC[C@H](C)Oc2ccc(NS(=O)(=O)c3ccc(F)cc3)cc2C1=O`, the AC50 was less than 260 nM. On to `O=C(Nc1ccc(Cl)c(Cl)c1)N[C@@H]1CC[C@H](CCn2cc(C3CCCCC3)nn2)O[C@H]1CO`, for which the AC50 is less than 260 nM. As to `CCOc1ccc(-n2c(=S)sc3c(=O)[nH]c(SCC(=O)NCC4CCCO4)nc32)cc1` (stereo unspecified), the AC50 is less than 260 nM.

Consider `COc1ccc(C(=O)NC(=S)NNC(=O)c2c(-c3ccccc3)noc2C)cc1`, for which the AC50 was less than 260 nM. Consider `COc1cc(C=C2C(=O)C=CC2=O)ccc1O`, for which the AC50 was less than 260 nM. As to `CCCC(=O)NC(c1ccc(C(C)C)cc1)c1ccc2cccnc2c1O` (stereo unspecified), the AC50 is less than 260 nM. For `COc1ccc(NC(=O)Nc2ccc3c(c2)C(=O)N([C@@H](C)CO)C[C@@H](C)[C@@H](CN(C)CC2CCCCC2)OCCCC[C@@H](C)O3)cc1`, the AC50 is less than 260 nM. The value for `COc1cccc(-c2ccc([C@H]3[C@@H](CO)N(C(=O)Cc4ccccc4)[C@H]3C#N)cc2)c1` was less than 260 nM; that for `COc1cc(-c2cnc3c(NC=O)cc(-c4ccccc4)cn23)cc(OC)c1OC` was less than 260 nM; that for `CCOc1ccc2nc(N/C(N)=N/C(=S)Nc3ccc(C)c(C)c3)nc(C)c2c1` was less than 260 nM. Take `C[C@@H]1CN([C@@H](C)CO)C(=O)Cc2cc(NS(=O)(=O)c3ccc(Cl)cc3)ccc2O[C@H]1CN(C)Cc1ccc(Oc2ccccc2)cc1`: the AC50 was less than 260 nM.

Source of the values: PubChem BioAssay AID687029 (Broad Institute, 2013).
